{"source": "patent US20240252580A1", "about": "“AMINO ACID HYDRATION FORMULATION AND METHOD OF USE” (The Coca-Cola Company, priority 2021, published 2024)", "origin": "cited, not measured here", "settings": "for effect on sodium and water absorption from the human jejunum: perfusion technique; for dependence of sodium and water absorption on amino acid concentration: saturation not demonstrated over the range of concentrations", "note": "Peptide text beside a SMILES is read from it."}
{"smiles": "C[C@H](NC(=O)CN)C(=O)O", "note": "[Gly-Ala, glycyl-L-alanine] (H-Gly-Ala-OH)", "values": [{"measurement": "effect on sodium and water absorption from the human jejunum", "value": "significant stimulation"}]}
{"smiles": "NCC(=O)NCC(=O)O", "note": "[Gly-Gly, glycyl-glycine] (H-Gly-Gly-OH)", "values": [{"measurement": "effect on sodium and water absorption from the human jejunum", "value": "significant stimulation"}]}
{"smiles": "C[C@H](N)C(=O)O", "note": "[alanine]", "values": [{"measurement": "effect on sodium and water absorption from the human jejunum", "value": "significant stimulation"}, {"measurement": "dependence of sodium and water absorption on amino acid concentration", "value": "increased linearly with increasing concentration"}]}
{"smiles": "NCC(=O)O", "note": "[glycine]", "values": [{"measurement": "effect on sodium and water absorption from the human jejunum", "value": "significant stimulation"}, {"measurement": "dependence of sodium and water absorption on amino acid concentration", "value": "increased linearly with increasing concentration"}]}
